Assay results as given in patent US10874622B2, “Dual assembly nanoparticles” (BOARD OF REGENTS, THE UNIVERSITY OF TEXAS SYSTEM, priority 2015, dated 2020).

Test system: HeyA8 cells
Experiment: In vitro anoikis (poly-HEMA plates, Annexin V-FITC/PI)
Format: cell-based, human
Conditions: HeyA8 cells in suspension, 72 h
Experimental: In vitro anoikis. Cells were transfected with control or ZNF304 siRNA and transferred to 6-well tissue culture plates that were coated with polyhydroxyethylmethacrylate, and cells were cultured in these plates for 72 h at 37° C. in a 5% CO2 atmosphere. Cells were washed with PBS and were stained with Annexin V-FITC and PI solution (50 μg/ml) containing RNase A (25 μg/ml). After incubating the pellets for 30 min at 37° C., cell viability was analyzed by flow cytometry.
β1 integrin confers a survival advantage to tumor cells (Vachon, 2011). […] Therefore, the anoikis rates were examined at 24, 48, and 72 h in detached HeyA8 cells in vitro using polyhydroxyethylmethacrylate (poly-HEMA)-coated tissue culture plates that promote anchorage-independent cell growth (Sood et al., 2010).

**Q.** With “Control siRNA: non-silencing siRNA without homology to any known human mRNA, UUCUCCGAACGUGUCACGUUU (SEQ ID NO: 15) (listed as RNA, chemistry not given here)” as the substance, how does the rate of anoikis read?
**A.** 60%
